Data reported in the SangsterLogP compilation.

experiment: method code SF-AS, from DOI: 10.2298/jsc0810967p; settings: pH 7.4

| logD | SMILES |
| --- | --- |
| 4.85 | Cc1cccc(Cn2cnc3cc(C)c(C)cc32)c1 |
| 4.28 | COc1cccc(Cn2cnc3cc(C)c(C)cc32)c1 |
| 5.05 | Cc1cc2ncn(Cc3cccc(Cl)c3)c2cc1C |
| 4.5 | Cc1cc2ncn(Cc3cccc(F)c3)c2cc1C |
